What was measured:
[1] = target: IL-2-Inducible T-Cell Kinase (ITK) (Homo sapiens (Human), UniProt Q08881); assay: ITK enzyme assay (IL-2-inducible T-cell kinase activity); type: biochemical; details: geometric mean of count n
Experimental: ITK activity was determined by measuring the effect of a test compound in an ITK enzyme assay.
1.0 M HEPES Buffer pH 7.5 solution was prepared as follows: 238.3 g HEPES free acid (Sigma) and 800 mL of water were combined, and the mixture was stirred until complete dissolution. The pH was adjusted to 7.5 via titration with 5N NaOH and the volume adjusted to 1000 mL. The solution was filtered and sterilized.
ITK assay buffer was prepared as follows: 50 mL of HPLC-grade water was treated with 2 mL of 1.0 M HEPES Buffer, 500 μL of 2% Gelatin (Sigma), 1.0 mL of aqueous MgCl2 solution (1.0 M), and 1.0 mL of aqueous glutathione solution (0.5 M), and the solution was mixed. The solution was brought to 99 mL in a graduated cylinder by addition of water and sterilized through a 0.2 μm filter. 0.1 mL of Brij-35™ Surfact-Amps™ Detergent Solution (10% w/v aqueous solution, ThermoFisher) and 1.0 mL of ATP (Teknova,100 mM) were added and the solution was mixed.
Preparation of 1.33× ITK enzyme solution was as follows: 49.99 mL of ITK assay buffer was treated with 4.1 μL of ITK enzyme (ITK FL (N-Flag and C-His tagged, […]) Lake Pharma, 0.25 mg/ml in a buffer containing 25 mM Tris pH 7.8, 150 mM NaCl, 10% glycerol and 2 mM TCEP) and the mixture was gently agitated. The resulting solution was stored on ice. 30 Minutes prior to use, the enzyme solution was removed from ice and equilibrated to RT by incubation in a RT water bath.
Preparation of 4× ITK substrate solution was as follows: 50 mL of ITK assay buffer was treated with 100 μL of BTK peptide (China Peptide Company, 2 mM stock solution in DMSO). The tube was capped, mixed by gently inverting the tube, and then stored on ice. 30 Minutes prior to use, the substrate solution was removed from ice and equilibrated to RT by incubation in a RT water bath.
At the time of assay, 7.5 μL of the 1.33× ITK enzyme solution was added to plate wells containing 0.1 μL of varying concentrations of test compound in DMSO. The plate was incubated 30 min at RT. The plate wells were each treated with 2.5 uL of the 4× ITK substrate solution and the plate was sealed (TopSeal™, Perkin Elmer). The plate was spun at 1000 rpm for 30 sec and then incubated for 60 min at RT. The seal was removed, and each well was treated with 10 μL of Stop/Detect Buffer (20 mM HEPES pH 7.5, 0.01% gelatin, 1 nM LANCE PT66 (Perkin Elmer), 16.5 μg/ml Surelight APC (Perkin Elmer), 10 mM EDTA, 250 mM NaCl). The plate was again covered and was spun at 1000 rpm for […]. The plate was allowed to incubate overnight at RT and in a closed carrier to reduce dehydration. The seal was removed, and the fluorescence was read with a plate reader with an excitation wavelength of […]. The concentrations and resulting effect values for the tested compound were plotted and the concentration of compound required for 50% effect (IC50) was determined with the four-parameter logistic dose response equation.

[2] = tested on: activated CD4+ human T-cells (IL-2); assay: IL-2 inhibition in supernatants from activated CD4+ human T-cells (cisbio HTRF); type: cell-based; details: T-cell; CD3/CD28-activated CD4+ human T cells, ImmunoCult stimulation 20 to 24 hrs; geometric mean of count n
Experimental: IL-2 inhibition activity in supernatants from activated CD4+ human T-cells was determined by measuring the effect of a test compound on the activity using the cisbio HTRF™ technology.
Human CD4+ T cells were activated with CD3/CD28 for 3 days and expanded for an additional 4-6 days (7 to 9 days total). On day 0, frozen CD4+ T cells were thawed, treated with CD3/CD28 Dynabeads, and incubated at 37° C./5% CO2. On day 3, the beads were removed, and the cells were diluted to 5×10^5 cells/cm^2, placed in G-Rex10 flask, and incubated at 37° C./5% CO2. On day 7 to day 9 the cells were removed from the G-Rex flasks, counted and diluted back to 1×10^6 cells/ml in standard tissue culture flask.
The expanded CD4+ T-cells were centrifuged at 300×g for 10 minutes and resuspended to 0.5 million cells per ml (30,000 cells/well). 60 μl of CD4+ T cells were added per well to a 384 well plate containing 0.1 μL of varying concentrations of test compound in DMSO. The plates were incubated for 15 min at 37° C./5% CO2. 20 μl of diluted ImmunoCult™ (STEMCELL Technologies, 1:12.5 in T cell assay media) were added to all wells of the plate (1:50 final assay concentration). The plates were incubated for an additional 20 to 24 hrs at 37° C./5% CO2. The plates were centrifuged at 300×g for 10 minutes. 16 μL of supernatant was removed and combined with 4 μl of IL-2 HTRF Abs. (cisbio kit). Plates were incubated for 3 hours at RT and read with an EnVision plate reader at 665 nm and 615 nm wavelengths. The concentrations and resulting effect values for the tested compound were plotted and the concentration of compound required for 50% effect (IC50) was determined with the four-parameter logistic dose response equation.

Sequence of IL-2-Inducible T-Cell Kinase (ITK) (Q08881 whole entry): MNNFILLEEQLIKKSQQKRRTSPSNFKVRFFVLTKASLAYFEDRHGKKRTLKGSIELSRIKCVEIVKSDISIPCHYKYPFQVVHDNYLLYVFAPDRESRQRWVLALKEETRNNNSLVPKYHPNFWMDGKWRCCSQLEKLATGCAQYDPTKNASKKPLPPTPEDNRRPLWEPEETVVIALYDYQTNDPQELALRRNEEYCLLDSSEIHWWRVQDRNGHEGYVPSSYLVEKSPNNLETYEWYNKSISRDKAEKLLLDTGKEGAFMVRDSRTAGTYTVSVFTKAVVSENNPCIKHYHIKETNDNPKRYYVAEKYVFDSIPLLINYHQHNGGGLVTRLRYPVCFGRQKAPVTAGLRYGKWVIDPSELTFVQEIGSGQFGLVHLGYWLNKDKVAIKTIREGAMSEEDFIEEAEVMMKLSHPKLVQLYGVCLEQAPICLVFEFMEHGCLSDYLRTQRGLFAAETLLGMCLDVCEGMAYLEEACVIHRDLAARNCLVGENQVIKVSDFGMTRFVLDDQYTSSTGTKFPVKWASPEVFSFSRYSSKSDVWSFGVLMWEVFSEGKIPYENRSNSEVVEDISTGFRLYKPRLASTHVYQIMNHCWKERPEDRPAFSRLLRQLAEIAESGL

Structure (SMILES)	IC50 [1] [nM]	IC50 [2] [nM]
CN(C(=O)C1CCOCC1)c1cnc2nc(-c3n[nH]c4c3C[C@@H]3C[C@]3(C)C4)[nH]c2c1 [Example 46, N-Methyl-N-(2-((4aS,5aR)-5a-methyl-1,4,4a,5,5a,6-hexahydrocyclopropa[f]indazol-3-yl)-1H-imidazo[4,5-b]pyridin-6-yl)tetrahydro-2H-pyran-4-carboxamide]	123	294
CN(C(=O)CC1CCOCC1)c1cnc2nc(-c3n[nH]c4c3C[C@@H]3C[C@]3(C)C4)[nH]c2c1 [Example 52, N-Methyl-N-(2-((4aS,5aR)-5a-methyl-1,4,4a,5,5a,6-hexahydrocyclopropa[f]indazol-3-yl)-1H-imidazo[4,5-b]pyridin-6-yl)-2-(tetrahydro-2H-pyran-4-yl)acetamide]	51	189
CN(C(=O)CN1CCOCC1=O)c1cnc2nc(-c3n[nH]c4c3C[C@@H]3C[C@]3(C)C4)[nH]c2c1 [Example 56, N-Methyl-N-(2-((4aS,5aR)-5a-methyl-1,4,4a,5,5a,6-hexahydrocyclopropa[f]indazol-3-yl)-1H-imidazo[4,5-b]pyridin-6-yl)-2-(3-oxomorpholino)acetamide]	54	611
CN(C(=O)C(C)(C)C1CCOCC1)c1cnc2nc(-c3n[nH]c4c3CC3C[C@]3(C)C4)[nH]c2c1 (stereo partly drawn) [Example 60, N,2-Dimethyl-N-(2-((4aS,5aR)-5a-methyl-1,4,4a,5,5a,6-hexahydrocyclopropa[f]indazol-3-yl)-1H-imidazo[4,5-b]pyridin-6-yl)-2-(tetrahydro-2H-pyran-4-yl)propenamide]	63	182
CN(C(=O)C1(C)CCC(F)(F)CC1)c1cnc2nc(-c3n[nH]c4c3C[C@@H]3C[C@]3(C)C4)[nH]c2c1 [Example 62, 4,4-Difluoro-N,1-dimethyl-N-(2-((4aS,5aR)-5a-methyl-1,4,4a,5,5a,6-hexahydrocyclopropa[f]indazol-3-yl)-1H-imidazo[4,5-b]pyridin-6-yl)cyclohexane-1-carboxamide]	141	402
CN(C(=O)C1(C2CCC2)CCC1)c1cnc2nc(-c3n[nH]c4c3C[C@@H]3C[C@]3(C)C4)[nH]c2c1 [Example 63, N-Methyl-N-(2-((4aS,5aR)-5a-methyl-1,4,4a,5,5a,6-hexahydrocyclopropa[f]indazol-3-yl)-1H-imidazo[4,5-b]pyridin-6-yl)-[1,1′-bi(cyclobutane)]-1-carboxamide]	40	338
CN(C(=O)[C@@H]1CCCCO1)c1cnc2nc(-c3n[nH]c4c3C[C@@H]3C[C@]3(C)C4)[nH]c2c1 [Example 64, (S)-N-Methyl-N-(2-((4aS,5aR)-5a-methyl-1,4,4a,5,5a,6-hexahydrocyclopropa[f]indazol-3-yl)-1H-imidazo[4,5-b]pyridin-6-yl)tetrahydro-2H-pyran-2-carboxamide]	103	208
CN(C(=O)C1(C)CC(F)(F)C1)c1cnc2nc(-c3n[nH]c4c3C[C@@H]3C[C@]3(C)C4)[nH]c2c1 [Example 66, 3,3-Difluoro-N,1-dimethyl-N-(2-((4aS,5aR)-5a-methyl-1,4,4a,5,5a,6-hexahydrocyclopropa[f]indazol-3-yl)-1H-imidazo[4,5-b]pyridin-6-yl)cyclobutane-1-carboxamide]	92	292
CN(C(=O)[C@H]1CCCCO1)c1cnc2nc(-c3n[nH]c4c3C[C@@H]3C[C@]3(C)C4)[nH]c2c1 [Example 68, (R)-N-Methyl-N-(2-((4aS,5aR)-5a-methyl-1,4,4a,5,5a,6-hexahydrocyclopropa[f]indazol-3-yl)-1H-imidazo[4,5-b]pyridin-6-yl)tetrahydro-2H-pyran-2-carboxamide]	107	177

More lines, now with the values ahead:

IC50 [1] [nM]	IC50 [2] [nM]	Structure (SMILES)
37	108	CN(C(=O)C1CCCCC1)c1cnc2nc(-c3n[nH]c4c3C[C@@H]3C[C@]3(C)C4)[nH]c2c1 [Example 51, N-Methyl-N-(2-((4aS,5aR)-5a-methyl-1,4,4a,5,5a,6-hexahydrocyclopropa[f]indazol-3-yl)-1H-imidazo[4,5-b]pyridin-6-yl)cyclohexanecarboxamide]
88	304	CN(C(=O)C(C)(C)CN1CCOCC1)c1cnc2nc(-c3n[nH]c4c3C[C@@H]3C[C@]3(C)C4)[nH]c2c1 [Example 53, N,2,2-Trimethyl-N-(2-((4aS,5aR)-5a-methyl-1,4,4a,5,5a,6-hexahydrocyclopropa[f]indazol-3-yl)-1H-imidazo[4,5-b]pyridin-6-yl)-3-morpholinopropanamide]
20	93	CN(C(=O)C1C[C@@H]2[C@H](C1)C2(F)F)c1cnc2nc(-c3n[nH]c4c3C[C@@H]3C[C@]3(C)C4)[nH]c2c1 (stereo partly drawn) [Example 55, (1R,5S)-6,6-Difluoro-N-methyl-N-(2-((4aS,5aR)-5a-methyl-1,4,4a,5,5a,6-hexahydrocyclopropa[f]indazol-3-yl)-1H-imidazo[4,5-b]pyridin-6-yl)bicyclo[3.1.0]hexane-3-carboxamide]
109	370	CN(C(=O)C12CC(F)(C1)C2)c1cnc2nc(-c3n[nH]c4c3C[C@@H]3C[C@]3(C)C4)[nH]c2c1 [Example 59]
150	568	CCC1(C(=O)N(C)c2cnc3nc(-c4n[nH]c5c4C[C@@H]4C[C@]4(C)C5)[nH]c3c2)CCOCC1 [Example 65, 4-Ethyl-N-methyl-N-(2-((4aS,5aR)-5a-methyl-1,4,4a,5,5a,6-hexahydrocyclopropa[f]indazol-3-yl)-1H-imidazo[4,5-b]pyridin-6-yl)tetrahydro-2H-pyran-4-carboxamide]
12	59	CN(C(=O)[C@@H]1C[C@@H]2[C@H](C1)C2(F)F)c1cnc2nc(-c3n[nH]c4c3C[C@@H]3C[C@]3(C)C4)[nH]c2c1 [Example 67, (1R,3s,5S)-6,6-Difluoro-N-methyl-N-(2-((4aS,5aR)-5a-methyl-1,4,4a,5,5a,6-hexahydrocyclopropa[f]indazol-3-yl)-1H-imidazo[4,5-b]pyridin-6-yl)bicyclo[3.1.0]hexane-3-carboxamide]
292	1160	CN(C(=O)[C@H]1[C@@H]2COC[C@@H]21)c1cnc2nc(-c3n[nH]c4c3C[C@@H]3C[C@]3(C)C4)[nH]c2c1 [Example 69, (1R,5S,6r)-N-Methyl-N-(2-((4aS,5aR)-5a-methyl-1,4,4a,5,5a,6-hexahydrocyclopropa[f]indazol-3-yl)-1H-imidazo[4,5-b]pyridin-6-yl)-3-oxabicyclo[3.1.0]hexane-6-carboxamide]

From US20240124439A1, “Pyrido[2,3-D]Imidazole Derivatives and Their Use As Inhibitors of ITK for the Treatment of Skin Disease” (Pfizer Inc., priority 2020, published 2024)
